For one assay, the target named is bovine cardiac myosin (Bos taurus, UniProt Q9BE39). In words: Myosin inhibition assay (PK/LDH-coupled ATPase, bovine cardiac myofibrils). Format: biochemical. Particulars: calcium concentration giving 50% activation, pH 6.8, read-out: bcMF pCa_6 IC50. The protocol:
Small molecule agents were assessed for their ability to inhibit the enzymatic activity of bovine cardiac myosin using a biochemical assay that couples the release of ADP (adenosine diphosphate) from cardiac myosin to an enzymatic coupling system consisting of pyruvate kinase and lactate dehydrogenase (PK/LDH) and monitoring the absorbance decrease of NADH (at 340 nm) as a function of time. PK converts ADP to ATP (adenosine triphosphate) by converting PEP (phosphoenolpyruvate) to pyruvate. Pyruvate is then converted to lactate by LDH by converting NADH (nicotinamide adenine dinucleotide) to NAD (oxidized nicotinamide adenine dinucleotide). […] Prior to testing small molecule agents, the bovine myofibrils were assessed for their calcium responsiveness and the calcium concentration that achieves a 50% activation of the myofibril system was chosen as the final condition for assessing the inhibitory activity of the small molecule agents. All enzymatic activity was measured in a buffered solution containing 12 mM PIPES (piperazine-N,N′-bis(2-ethanesulfonic acid), 2 mM magnesium chloride at pH 6.8 (PM12 buffer). Final assay conditions were 1 mg/mL of bovine cardiac myofibrils, 0.4 mM PK/LDH, 50 uM ATP, 0.1 mg/mL BSA (bovine serum albumin), 10 ppm antifoam, 2 mM BME, 0.5 mM NADH, 1.5 mM PEP at the desired free calcium concentration required to achieve 50% activation of the myofibrils.
A dilution series of compound was created in DMSO such that the final desired concentration of compound would be achieved in a volume of 30 μL with a fixed DMSO concentration of 3.3% (v/v). Typically 1 μL of the dilution series were added to 384 well plate to achieve an 10 point dose response. Following the addition of 14 μL of a solution containing bovine cardiac myofibrils, PK/LDH and a solution of calcium (that achieved 50% activation), the enzymatic reaction was started with the addition of 15 μL of a solution containing ATP, PEP and NADH. The reaction progress was followed in a PerkinElmer Envision plate reader at ambient temperature using clear bottom plates. The plate reader was configured to read absorbance at 340 nm in kinetics mode for 15 minutes. Data were recorded as the slope of the absorbance response to time. The slopes of the absorbance response as a function of time were normalized to slopes on the plate containing DMSO. This normalized rate was then plotted as a function of small molecule concentration and the data was fitted to a four-parameter fit using EXCEL XLfit. The IC50 is the concentration at which fifty percent of the total response is inhibited.

Assay [1] concerns adult rat ventricular myocytes. The experiment in a line: Cardiomyocyte contractility assay (fractional shortening, IonOptix edge detection). Conditions: 1 Hz pacing; for inhibition at 0.1 µM / inhibition at 0.3 µM / inhibition at 1 µM: Ventricular myocyte; for inhibition at 0.1 µM: 0.1 μM compound; for inhibition at 1 µM: 1.0 μM compound. The assay is classed as cell-based. The protocol: Contractility of adult rat ventricular myocytes is determined by edge detection with an IonOptix contractility system. Aliquots of myocytes in Tyrode buffer (137 mM NaCl, 3.7 mM KCL, 0.5 mM MgCl2, 1.5 mM CaCl2, 4 mM HEPES, 11 mM glucose) are placed in a perfusion chamber (Series 20 RC-27NE; Warner Instruments), allowed to adhere to the coverslip, and then perfused with 37° C. Tyrode buffer. Myocytes are filed stimulated at 1 Hz and 10V. Only myocytes with clear striations, quiescent prior to pacing, with a cell length of 120-180 microns, a basal fractional shortening equal to 3-8% of the cell length, and a contraction velocity greater than 100 microns per second are used for contractility experiments. To determine the response to compounds, myocytes are first perfused for 60 seconds with Tyrodes buffer followed by 5 minutes of compound and a 140 second washout with Tyrodes buffer. Data is continuously recorded using IonOptix software. Contractility data is analyzed using Ionwizard software (IonOptix). For each cell, 10-20 contractility transients were averaged and compared under basal (no compound) and compound-treated conditions. Compound activity is measured by effects on fractional shortening (FS), where fractional shortening is the ratio of the peak length of the cell at contraction divided by the basal cell length normalized to 100% for an untreated cell.

The record followed here is US9663516B2, “Bicyclic-pyrimidinedione compounds” (MyoKardia, Inc., priority 2014, dated 2017).

Chain of bovine cardiac myosin (Q9BE39 whole entry): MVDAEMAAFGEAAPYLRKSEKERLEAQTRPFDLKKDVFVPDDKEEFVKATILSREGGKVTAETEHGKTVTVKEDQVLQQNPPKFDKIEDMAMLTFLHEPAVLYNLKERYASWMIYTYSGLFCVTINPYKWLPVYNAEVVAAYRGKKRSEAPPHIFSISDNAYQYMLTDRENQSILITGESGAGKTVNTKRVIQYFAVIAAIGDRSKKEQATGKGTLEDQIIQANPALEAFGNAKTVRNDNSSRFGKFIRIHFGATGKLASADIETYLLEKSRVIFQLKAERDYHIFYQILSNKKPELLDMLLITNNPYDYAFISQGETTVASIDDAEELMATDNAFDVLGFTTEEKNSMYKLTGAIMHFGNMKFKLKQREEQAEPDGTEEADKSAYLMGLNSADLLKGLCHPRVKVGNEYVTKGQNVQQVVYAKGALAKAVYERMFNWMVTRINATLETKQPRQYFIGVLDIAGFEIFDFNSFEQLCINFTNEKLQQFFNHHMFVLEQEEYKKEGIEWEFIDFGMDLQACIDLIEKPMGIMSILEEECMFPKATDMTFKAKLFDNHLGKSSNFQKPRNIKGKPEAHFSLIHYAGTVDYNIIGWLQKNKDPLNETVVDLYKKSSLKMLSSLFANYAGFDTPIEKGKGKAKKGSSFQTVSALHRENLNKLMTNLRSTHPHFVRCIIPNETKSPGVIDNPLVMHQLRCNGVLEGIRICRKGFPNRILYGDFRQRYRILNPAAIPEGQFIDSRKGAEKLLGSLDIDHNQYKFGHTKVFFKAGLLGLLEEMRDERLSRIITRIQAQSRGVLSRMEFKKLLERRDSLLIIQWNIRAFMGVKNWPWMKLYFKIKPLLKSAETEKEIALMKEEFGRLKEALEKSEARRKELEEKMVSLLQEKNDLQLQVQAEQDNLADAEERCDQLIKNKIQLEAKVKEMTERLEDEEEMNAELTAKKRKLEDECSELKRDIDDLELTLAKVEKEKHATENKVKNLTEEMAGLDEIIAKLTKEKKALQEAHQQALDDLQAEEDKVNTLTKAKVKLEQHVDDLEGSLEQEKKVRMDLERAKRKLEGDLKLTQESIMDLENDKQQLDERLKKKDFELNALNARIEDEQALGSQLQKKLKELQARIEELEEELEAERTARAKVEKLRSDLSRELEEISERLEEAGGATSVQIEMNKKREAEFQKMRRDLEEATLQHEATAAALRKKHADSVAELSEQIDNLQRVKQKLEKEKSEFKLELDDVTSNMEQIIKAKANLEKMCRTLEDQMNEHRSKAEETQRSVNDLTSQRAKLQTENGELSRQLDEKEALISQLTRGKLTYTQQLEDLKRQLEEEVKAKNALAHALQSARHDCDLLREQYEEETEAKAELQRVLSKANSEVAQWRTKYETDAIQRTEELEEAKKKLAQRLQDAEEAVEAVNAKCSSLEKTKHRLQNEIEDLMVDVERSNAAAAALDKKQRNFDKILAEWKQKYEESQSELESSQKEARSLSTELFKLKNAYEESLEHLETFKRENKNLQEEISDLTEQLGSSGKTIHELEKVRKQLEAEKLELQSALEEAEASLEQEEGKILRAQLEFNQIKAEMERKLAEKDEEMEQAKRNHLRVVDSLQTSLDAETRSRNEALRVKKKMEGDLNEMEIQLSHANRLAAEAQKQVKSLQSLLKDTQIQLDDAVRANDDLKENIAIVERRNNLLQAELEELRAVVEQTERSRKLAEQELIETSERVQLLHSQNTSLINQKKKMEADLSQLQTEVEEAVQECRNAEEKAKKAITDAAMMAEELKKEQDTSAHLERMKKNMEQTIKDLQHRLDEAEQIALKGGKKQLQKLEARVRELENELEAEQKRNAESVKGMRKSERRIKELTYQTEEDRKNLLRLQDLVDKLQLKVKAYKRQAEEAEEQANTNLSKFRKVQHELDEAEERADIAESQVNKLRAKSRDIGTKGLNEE
Chain of bovine cardiac myosin (P85100 whole entry partner): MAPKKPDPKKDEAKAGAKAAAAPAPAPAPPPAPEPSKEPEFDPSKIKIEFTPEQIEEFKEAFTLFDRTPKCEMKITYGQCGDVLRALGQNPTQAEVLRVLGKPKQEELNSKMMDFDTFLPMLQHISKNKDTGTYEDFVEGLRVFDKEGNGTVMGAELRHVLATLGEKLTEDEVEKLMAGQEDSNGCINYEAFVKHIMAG
Chain of bovine cardiac myosin (Q3SZE5 whole entry partner): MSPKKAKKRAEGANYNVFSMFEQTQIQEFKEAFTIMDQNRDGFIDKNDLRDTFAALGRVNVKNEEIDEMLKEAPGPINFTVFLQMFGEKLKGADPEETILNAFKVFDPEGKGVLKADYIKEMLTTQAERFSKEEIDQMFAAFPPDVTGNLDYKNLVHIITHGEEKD

As usually defined, the IC50 is the concentration needed to halve the response being measured. One may read the inhibition as the change of the read-out against control, counted positive when it falls. Lower therefore signals little suppression. Take `CC(C)n1c(=O)[nH]c2c(c1=O)CC[C@H](c1ccc(F)c(F)c1)N2` [Compound 4, (7R)-7-(3,4-difluorophenyl)-3-isopropyl-5,6,7,8-tetrahydropyrido[2,3-d]pyrimidine-2,4(1H,3H)-dione]: on bovine cardiac myosin, the IC50 lay within 1000 to 15000 nM. In addition, in assay [1], the inhibition at 0.1 µM was under 33%. Moreover, the inhibition at 0.3 µM in assay [1] (0.3 μM compound) lay in the range of 33 to 66%. As to “(R)-3-Isopropyl-7-phenyl-7,8-dihydropyrido[2,3-d]pyrimidine-2,4,5(1H,3H,6H)-trione [Compound 1]”, on bovine cardiac myosin, the half-inhibitory concentration (IC50) lay within 1000 to 15000 nM. Also, the “Activity at 0.3 μM (fractional shortening inhibition)” value in assay [1] (0.3 μM compound) was “++ (++ represents fractional shorting inhibition values from 33% to 66%)”. Regarding `CC(C)n1c(=O)[nH]c2c(c1=O)CC[C@H](c1ccccc1F)N2` [Compound 69, (R)-7-(2-Fluorophenyl)-3-isopropyl-5,6,7,8-tetrahydropyrido[2,3-d]pyrimidine-2,4(1H,3H)-dione], the IC50 at bovine cardiac myosin is 1000 to 15000 nM. This compound also registered an inhibition at 0.1 µM in assay [1] of over 66%. `CC[C@H](C)n1c(=O)[nH]c2c(c1=O)CC[C@H](c1ccc(F)c(F)c1)N2` [Compound 18]: the half-maximal inhibitory concentration (IC50) at bovine cardiac myosin was 1000 to 15000 nM. Further, the inhibition at 0.3 µM in assay [1] (0.3 μM compound) lay within 33 to 66%. For `CC(C)n1c(=O)[nH]c2c(c1=O)CC[C@H](c1ccc(F)cc1)N2` [Compound 67] the same measures were 1000 to 15000 nM and 33 to 66%. Take `CC1(n2c(=O)[nH]c3c(c2=O)CC[C@H](c2ccc(F)c(F)c2)N3)CC1` [Compound 81]: on bovine cardiac myosin, the IC50 was 1000 to 15000 nM. Further, in assay [1], the inhibition at 1 µM was 33 to 66%.

With `CC(C)n1c(=O)[nH]c2c(c1=O)CC[C@H](c1cccc(F)c1)N2` [Compound 68, (R)-7-(3-Fluorophenyl)-3-isopropyl-5,6,7,8-tetrahydropyrido[2,3-d]pyrimidine-2,4(1H,3/H)-dione], on bovine cardiac myosin, the IC50 lay in the range of 1000 to 15000 nM. In assay [1], this compound registered an inhibition at 0.1 µM of over 66%. `CC(C)n1c(=O)[nH]c2c(c1=O)CC[C@H](C1CCC(F)(F)CC1)N2` [Compound 46]: the IC50 on bovine cardiac myosin was under 1000 nM. The compound further yielded an inhibition at 1 µM in assay [1] of over 66%. In the case of `CC(C)n1c(=O)[nH]c2c(c1=O)CC(F)(F)[C@H](c1ccccc1)N2` [Compound 116, (S)-6,6-Difluoro-3-isopropyl-7-phenyl-5,6,7,8-tetrahydropyrido[2,3-d]pyrimidine-2,4(1H,3H)-dione], the half-maximal inhibitory concentration (IC50) on bovine cardiac myosin lay within 1000 to 15000 nM. In addition, in assay [1] (0.3 μM compound), the inhibition at 0.3 µM lay within 33 to 66%. The inhibition at 1 µM in assay [1] was over 66%. Turning to `O=c1[nH]c2c(c(=O)n1-c1ccccc1)CC[C@H](c1ccc(F)c(F)c1)N2` [Compound 48], the half-inhibitory concentration (IC50) at bovine cardiac myosin lay in the range of 1000 to 15000 nM. This compound also returned an inhibition at 0.3 µM in assay [1] (0.3 μM compound) of under 33%. For the same compound, the inhibition at 1 µM in assay [1] was under 33%.

Take `O=c1[nH]c2c(c(=O)n1CC(F)(F)F)CC[C@H](c1ccc(F)c(F)c1)N2` [Compound 70]: at bovine cardiac myosin, the half-maximal inhibitory concentration (IC50) lay within 1000 to 15000 nM. This compound also came in with an inhibition at 1 µM in assay [1] of 33 to 66%. Turning to `O=c1[nH]c2c(c(=O)n1-c1cc(F)cc(F)c1)CC[C@H](C1CCC(F)(F)CC1)N2` [Compound 2, (R)-7-(4,4-Difluorocyclohexyl)-3-(3,5-difluorophenyl)-5,6,7,8-tetrahydropyrido[2,3-d]pyrimidine-2,4(1H,3H)-dione], the IC50 on bovine cardiac myosin was under 1000 nM. For the same compound, the inhibition at 0.3 µM in assay [1] (0.3 μM compound) is under 33%. The compound further registered an inhibition at 1 µM in assay [1] of over 66%. `CC(C)n1c(=O)[nH]c2c(c1=O)CC[C@H](c1ccc(F)cc1F)N2` [Compound 6, (R)-7-(2,4-Difluorophenyl)-3-isopropyl-5,6,7,8-tetrahydropyrido[2,3-d]pyrimidine-2,4(1H,3H)-dione]: at bovine cardiac myosin, the IC50 is under 1000 nM. In assay [1] (0.3 μM compound), this compound came in with an inhibition at 0.3 µM of 33 to 66%. In assay [1], this compound returned an inhibition at 1 µM of over 66%. With `CCn1c(=O)[nH]c2c(c1=O)CC[C@H](C1CCC(F)(F)CC1)N2` [Compound 53], the IC50 on bovine cardiac myosin lay in the range of 1000 to 15000 nM. The inhibition at 1 µM in assay [1] fell in the range of 33 to 66%. Take `O=c1[nH]c2c(c(=O)n1C1CCC1)CC[C@H](C1CCC(F)(F)CC1)N2` [Compound 31]: the IC50 on bovine cardiac myosin is under 1000 nM. Moreover, the inhibition at 0.3 µM in assay [1] (0.3 μM compound) is 33 to 66%. Take `CCn1c(=O)[nH]c2c(c1=O)CC[C@H](c1ccccc1F)N2` [Compound 14]: at bovine cardiac myosin, the IC50 lay within 1000 to 15000 nM. Further, the inhibition at 0.3 µM in assay [1] (0.3 μM compound) was under 33%. The inhibition at 1 µM in assay [1] was over 66%.

As to `CCn1c(=O)[nH]c2c(c1=O)CC[C@H](c1ccc(F)c(F)c1)N2` [Compound 9, (R)-7-(3,4-Difluorophenyl)-3-ethyl-5,6,7,8-tetrahydropyrido[2,3-d]pyrimidine-2,4(1H,3H)-dione], on bovine cardiac myosin, the IC50 was 1000 to 15000 nM. Also, the inhibition at 1 µM in assay [1] was in the range of 33 to 66%. On to `CC[C@@H](C)n1c(=O)[nH]c2c(c1=O)CC[C@H](c1ccc(F)c(F)c1)N2` [Compound 83], for which the half-maximal inhibitory concentration (IC50) at bovine cardiac myosin was under 1000 nM. In assay [1] (0.3 μM compound), this compound had an inhibition at 0.3 µM of 33 to 66%. Turning to `CC(C)n1c(=O)[nH]c2c(c1=O)CC[C@H](Cc1ccccc1)N2` [Compound 66], the half-maximal inhibitory concentration (IC50) on bovine cardiac myosin is under 1000 nM.

In the case of `C/C=C(\C)n1c(=O)[nH]c2c(c1=O)CC[C@H](c1ccccc1)N2` [Compound 55], the IC50 at bovine cardiac myosin was 1000 to 15000 nM. Same read-out and setting: the result for `Cn1ccc(-n2c(=O)[nH]c3c(c2=O)CC[C@H](C2CCC(F)(F)CC2)N3)n1` [Compound 36] reads under 1000 nM; that for `CC(C)n1c(=O)[nH]c2c(c1=O)CC[C@H](c1c(F)cccc1F)N2` [Compound 72], 1000 to 15000 nM.

Take `CC(C)n1c(=O)[nH]c2c(c1=O)CC[C@](C)(c1ccccc1)N2` [Compound 106]: on bovine cardiac myosin, the IC50 is under 1000 nM. Also, the inhibition at 0.1 µM in assay [1] was over 66%. In the case of `CCn1c(=O)[nH]c2c(c1=O)CC[C@H](c1ccc(F)c(F)c1)CN2` [Compound 84], the 50% inhibitory concentration (IC50) at bovine cardiac myosin was over 15000 nM. The same measure, in the same setting: under `Cn1c(=O)[nH]c2c(c1=O)CC[C@](C)(c1cc(F)ccc1F)N2` [Compound 118] stands 1000 to 15000 nM; under `O=c1[nH]c2c(c(=O)n1CC1CC1)CC[C@H](c1ccc(F)c(F)c1)N2` [Compound 82], 1000 to 15000 nM. Regarding `COC(=O)N1CCC(n2c(=O)[nH]c3c(c2=O)CC[C@H](c2ccccc2)N3)CC1` [Compound 110], on bovine cardiac myosin, the IC50 lay within 1000 to 15000 nM. For `CCn1c(=O)[nH]c2c(c1=O)CC[C@H](c1ccc(F)cc1)N2` [Compound 20], at bovine cardiac myosin, the half-maximal inhibitory concentration (IC50) was in the range of 1000 to 15000 nM. The compound also returned an inhibition at 1 µM in assay [1] of 33 to 66%. As for `C[C@]1(c2cc(F)ccc2F)CCc2c([nH]c(=O)n(C3CC3)c2=O)N1` [Compound 138], the half-maximal inhibitory concentration (IC50) at bovine cardiac myosin is under 1000 nM. Same read-out and setting: the result for `C[C@]1(c2ccccc2)CCc2c([nH]c(=O)n(-c3ccccc3)c2=O)N1` [Compound 139] reads under 1000 nM; that for `O=c1[nH]c2c(c(=O)n1-c1ccccc1)CC[C@H](c1ccccc1)N2` [Compound 26], 1000 to 15000 nM; that for `CC(C)n1c(=O)[nH]c2c(c1=O)CCC(c1ccccc1)N2` (stereo not drawn) [Compound 89], 1000 to 15000 nM. As for `CC1(n2c(=O)[nH]c3c(c2=O)CC[C@H](c2cc(F)ccc2F)N3)CC1` [Compound 120], the half-maximal inhibitory concentration (IC50) at bovine cardiac myosin was in the range of 1000 to 15000 nM. Still for that read-out and setting: under `CCC[C@]1(c2ccccc2)CCc2c([nH]c(=O)n(CC)c2=O)N1` [Compound 133] stands 1000 to 15000 nM; under `CC(C)n1c(=O)[nH]c2c(c1=O)CC[C@H](C1CC(F)(F)C1)N2` [Compound 41], 1000 to 15000 nM. For the compound `O=c1[nH]c2c(c(=O)n1CC(F)F)CC[C@H](c1ccc(F)c(F)c1)N2` [Compound 22], the IC50 at bovine cardiac myosin fell in the range of 1000 to 15000 nM. Besides, the inhibition at 1 µM in assay [1] fell in the range of 33 to 66%.
